Read-outs that look alike come from different tables or passages of the source.
Target: T1, Rs89B1 (Raphanus sativus, UniProt A0A6J0K544)
T1 construct: gene LOC108814497; full-length CDS, C-terminal 6xHis tag (kept), expressed in Schizosaccharomyces pombe TN4, HisTrap purified; start MTVNEENT (from primer)
Test: HPLC glucosyltransferase assay, initial rates, curve fitting
Assay type: biochemical
Details: co-substrate UDP-glucose (5.0 mM in basic mix), sodium phosphate pH 7.0, 30°C
Description: HPLC glucosyltransferase assay, initial rates, curve fitting on Rs89B1

T1 sequence (A0A6J0K544 entry or part of it): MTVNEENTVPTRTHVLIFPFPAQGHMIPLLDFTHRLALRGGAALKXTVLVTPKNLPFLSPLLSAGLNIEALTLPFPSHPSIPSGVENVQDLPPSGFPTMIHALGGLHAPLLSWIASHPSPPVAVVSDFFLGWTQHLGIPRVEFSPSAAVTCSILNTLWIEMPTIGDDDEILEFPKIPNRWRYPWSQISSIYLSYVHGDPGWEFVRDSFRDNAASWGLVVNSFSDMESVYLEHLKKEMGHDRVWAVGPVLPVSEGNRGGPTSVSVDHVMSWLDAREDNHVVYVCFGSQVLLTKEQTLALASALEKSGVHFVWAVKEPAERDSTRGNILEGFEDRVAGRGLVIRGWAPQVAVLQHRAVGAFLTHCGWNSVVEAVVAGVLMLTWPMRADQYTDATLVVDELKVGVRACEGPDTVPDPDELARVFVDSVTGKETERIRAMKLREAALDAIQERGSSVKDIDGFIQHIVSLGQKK

SMILES | Km | Km (read-out: Rs89B1_ins / Km)
O=C(O)c1ccc(O)c(O)c1O [2,3,4-THBA, 2,3,4-trihydroxy benzoic acid] | 138 ± 2 µM | 128 ± 4.5 µM
O=C(O)c1c(O)cc(O)cc1O [2,4,6-THBA] | 198 ± 7.2 µM | 688 ± 14.6 µM
O=C(O)c1ccc(O)cc1O [2,4-DHBA] | 182 ± 4.2 µM | 212 ± 5.8 µM

Second part, the molecule after the results:

Km | Km (read-out: Rs89B1_ins / Km) | SMILES
773.8 ± 1.6 µM | 663.2 ± 2.3 µM | O=C(O)c1cc(O)ccc1O [2,5-DHBA]
233 ± 12.2 µM | 251 ± 15.4 µM | O=C(O)c1ccc(O)cc1 [4-HBA]

From article PMC10901349, “Enzymatic properties of UDP-glycosyltransferase 89B1 from radish and modulation of enzyme catalytic activity via loop region mutation” (PLOS ONE, 2024)
